Read-outs that look alike come from different tables or passages of the source.
Assays:
[1] = in vivo
Method: The study compared various dose routes: sublingual (SL), per oral tablet (PO), subcutaneous (SC) and intravenous (IV). […] An Oral Irritation assessment was performed (SL film group): Predose (0) and 24 hr postdose by Draize scoring.

[2] = for average flux: 16 mg/mL
Method: A franz diffusion cell is obtained and prepared.
If testing films, one can perform the following next steps: (1) weigh films, punch to match diffusion area (or smaller), reweigh, record pre- and post-punching weight; (2) wet a donor area with approximately 100 μL of phosphate buffer; (3) place film on a donor surface, top with 400 μL of phosphate buffer, and start timers.
The tissue is dermatomed to precise thickness. • 4. […] The media is selected to ensure sink conditions. • 5.
The study compared concentrations of 4 mg/mL, 8 mg/mL, 16 mg/mL and 100 mg/mL. […]

[3] = PBS (pH 7.4), 37°±1° C., n=6; cited from earlier work

CNC[C@H](O)c1ccc(OC(=O)C(C)(C)C)c(OC(=O)C(C)(C)C)c1 (racemic) [Dipivefrin, dipivefrin]
% Bioavailability, DIPI AUC0-t [1]: 128.5% | % Bioavailability, EPI AUC0-t [1]: 131.0%

CNC[C@H](O)c1ccc(O)c(O)c1 [Epinephrine Bitartrate]
permeation as a function of solution pH [2]: slightly more favorable | average flux ([2]; 30 min): 0 μg/cm^2*min | average flux ([2]; 45 min): 0.2604 μg/cm^2*min | average flux ([2]; 60 min): 0.3125 μg/cm^2*min | average flux ([2]; 120 min): 0.6727 μg/cm^2*min | average flux ([2]; 180 min): 1.076 μg/cm^2*min | average flux ([2]; 240 min): 1.029 μg/cm^2*min | average flux ([2]; 300 min): 1.25 μg/cm^2*min | average flux ([2]; 360 min): 1.385 μg/cm^2*min

CC(C)NCC(O)COc1cccc2ccccc12 (stereo not drawn) [PP]
concentration of saturated solution (C0) [3]: 588005 ± 5852 µg/mL

Source: patent publication US20250108017A1 (Aquestive Therapeutics, Inc., priority 2023, published 2025)
